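How tested: cells in 96-well plates exposed to compound for 48 hours at five concentrations. TGI: concentration producing complete growth inhibition.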
What was measured:
Experiment in all cases: NCI tumour cell line growth inhibition, 48 h
786-0 renal = tested on: 786-0 renal
A498 renal = tested on: A498 renal
A549 NSCLC = tested on: A549 NSCLC
ACHN renal = tested on: ACHN renal
CAKI-1 renal = tested on: CAKI-1 renal
CCRF-CEM leukemia = tested on: CCRF-CEM leukemia
COLO 205 colon = tested on: COLO 205 colon
DLD-1 colon = tested on: DLD-1 colon
DMS 114 small cell lung = tested on: DMS 114 small cell lung
DMS 273 small cell lung = tested on: DMS 273 small cell lung
EKVX NSCLC = tested on: EKVX NSCLC
HCC-2998 colon = tested on: HCC-2998 colon
HCT-116 colon = tested on: HCT-116 colon
HCT-15 colon = tested on: HCT-15 colon
HL-60(TB) leukemia = tested on: HL-60(TB) leukemia
HOP-18 NSCLC = tested on: HOP-18 NSCLC
HOP-62 NSCLC = tested on: HOP-62 NSCLC
HOP-92 NSCLC = tested on: HOP-92 NSCLC
IGROV1 ovarian = tested on: IGROV1 ovarian
K-562 leukemia = tested on: K-562 leukemia
KM12 colon = tested on: KM12 colon
KM20L2 colon = tested on: KM20L2 colon
LOX IMVI melanoma = tested on: LOX IMVI melanoma
LXFL 529 NSCLC = tested on: LXFL 529 NSCLC
M14 melanoma = tested on: M14 melanoma
M19-MEL melanoma = tested on: M19-MEL melanoma
MALME-3M melanoma = tested on: MALME-3M melanoma
MOLT-4 leukemia = tested on: MOLT-4 leukemia
NCI-H226 lung = tested on: NCI-H226 lung
NCI-H23 lung = tested on: NCI-H23 lung
NCI-H460 lung = tested on: NCI-H460 lung
NCI-H522 lung = tested on: NCI-H522 lung
OVCAR-3 ovarian = tested on: OVCAR-3 ovarian
OVCAR-4 ovarian = tested on: OVCAR-4 ovarian
OVCAR-5 ovarian = tested on: OVCAR-5 ovarian
OVCAR-8 ovarian = tested on: OVCAR-8 ovarian
RXF 393 renal = tested on: RXF 393 renal
RXF-631 renal = tested on: RXF-631 renal
SF-268 CNS = tested on: SF-268 CNS
SF-295 CNS = tested on: SF-295 CNS
SF-539 CNS = tested on: SF-539 CNS
SK-MEL-2 melanoma = tested on: SK-MEL-2 melanoma
SK-MEL-28 melanoma = tested on: SK-MEL-28 melanoma
SK-MEL-5 melanoma = tested on: SK-MEL-5 melanoma
SK-OV-3 ovarian = tested on: SK-OV-3 ovarian
SN12C renal = tested on: SN12C renal
SNB-19 CNS = tested on: SNB-19 CNS
SNB-75 CNS = tested on: SNB-75 CNS
SNB-78 CNS = tested on: SNB-78 CNS
SR leukemia = tested on: SR leukemia
SW-620 colon = tested on: SW-620 colon
TK-10 renal = tested on: TK-10 renal
U251 CNS = tested on: U251 CNS
UACC-257 melanoma = tested on: UACC-257 melanoma
UACC-62 melanoma = tested on: UACC-62 melanoma
UO-31 renal = tested on: UO-31 renal
XF 498 CNS = tested on: XF 498 CNS
HT29 colon = tested on: HT29 colon
RPMI-8226 leukemia = tested on: RPMI-8226 leukemia

## Cc1cc([N+](=O)[O-])ccc1Sc1c2ccccc2nc2cc(Cl)ccc12
786-0 renal
  TGI: > 100 µM
A498 renal
  TGI: > 100 µM
A549 NSCLC
  TGI: > 100 µM
ACHN renal
  TGI: > 100 µM
CAKI-1 renal
  TGI: 84 µM
CCRF-CEM leukemia
  TGI: > 100 µM
COLO 205 colon
  TGI: > 100 µM
DLD-1 colon
  TGI: > 100 µM
DMS 114 small cell lung
  TGI: 52.9 µM
DMS 273 small cell lung
  TGI: > 100 µM
EKVX NSCLC
  TGI: > 100 µM
HCC-2998 colon
  TGI: > 100 µM
HCT-116 colon
  TGI: 63.8 µM
HCT-15 colon
  TGI: > 100 µM
HL-60(TB) leukemia
  TGI: 51 µM
HOP-18 NSCLC
  TGI: > 100 µM
HOP-62 NSCLC
  TGI: > 100 µM
HOP-92 NSCLC
  TGI: 76.6 µM
IGROV1 ovarian
  TGI: > 100 µM
K-562 leukemia
  TGI: > 100 µM
KM12 colon
  TGI: 50.4 µM
KM20L2 colon
  TGI: 44.2 µM
LOX IMVI melanoma
  TGI: 86.8 µM
LXFL 529 NSCLC
  TGI: > 100 µM
M14 melanoma
  TGI: > 100 µM
M19-MEL melanoma
  TGI: > 100 µM
MALME-3M melanoma
  TGI: > 100 µM
MOLT-4 leukemia
  TGI: 93.7 µM
NCI-H226 lung
  TGI: > 100 µM
NCI-H23 lung
  TGI: 76.9 µM
NCI-H460 lung
  TGI: > 100 µM
NCI-H522 lung
  TGI: 78.7 µM
OVCAR-3 ovarian
  TGI: > 100 µM
OVCAR-4 ovarian
  TGI: > 100 µM
OVCAR-5 ovarian
  TGI: > 100 µM
OVCAR-8 ovarian
  TGI: 57.3 µM
RXF 393 renal
  TGI: > 100 µM
RXF-631 renal
  TGI: > 100 µM
SF-268 CNS
  TGI: 89.5 µM
SF-295 CNS
  TGI: > 100 µM
SF-539 CNS
  TGI: 57.6 µM
SK-MEL-2 melanoma
  TGI: > 100 µM
SK-MEL-28 melanoma
  TGI: > 100 µM
SK-MEL-5 melanoma
  TGI: > 100 µM
SK-OV-3 ovarian
  TGI: > 100 µM
SN12C renal
  TGI: 92.7 µM
SNB-19 CNS
  TGI: > 100 µM
SNB-75 CNS
  TGI: 89.7 µM
SNB-78 CNS
  TGI: > 100 µM
SR leukemia
  TGI: > 100 µM
SW-620 colon
  TGI: 93.5 µM
TK-10 renal
  TGI: > 100 µM
U251 CNS
  TGI: 80.7 µM
UACC-257 melanoma
  TGI: > 100 µM
UACC-62 melanoma
  TGI: > 100 µM
UO-31 renal
  TGI: > 100 µM
XF 498 CNS
  TGI: 91.5 µM

## C=C=C(C(=O)OC)S(=O)c1ccccc1[N+](=O)[O-] (stereo not given)
786-0 renal
  TGI: > 100 µM
A498 renal
  TGI: > 100 µM
A549 NSCLC
  TGI: > 100 µM
ACHN renal
  TGI: > 100 µM
CAKI-1 renal
  TGI: > 100 µM
CCRF-CEM leukemia
  TGI: 77 µM
COLO 205 colon
  TGI: > 100 µM
DMS 114 small cell lung
  TGI: > 100 µM
DMS 273 small cell lung
  TGI: > 100 µM
EKVX NSCLC
  TGI: > 100 µM
HCC-2998 colon
  TGI: > 100 µM
HCT-116 colon
  TGI: > 100 µM
HCT-15 colon
  TGI: > 100 µM
HL-60(TB) leukemia
  TGI: > 100 µM
HOP-18 NSCLC
  TGI: > 100 µM
HOP-62 NSCLC
  TGI: > 100 µM
HT29 colon
  TGI: > 100 µM
IGROV1 ovarian
  TGI: > 100 µM
K-562 leukemia
  TGI: > 100 µM
KM12 colon
  TGI: > 100 µM
KM20L2 colon
  TGI: > 100 µM
LXFL 529 NSCLC
  TGI: > 100 µM
M14 melanoma
  TGI: > 100 µM
M19-MEL melanoma
  TGI: > 100 µM
MALME-3M melanoma
  TGI: > 100 µM
MOLT-4 leukemia
  TGI: > 100 µM
NCI-H226 lung
  TGI: > 100 µM
NCI-H23 lung
  TGI: > 100 µM
NCI-H460 lung
  TGI: > 100 µM
NCI-H522 lung
  TGI: 75.9 µM
OVCAR-3 ovarian
  TGI: > 100 µM
OVCAR-4 ovarian
  TGI: > 100 µM
OVCAR-5 ovarian
  TGI: > 100 µM
OVCAR-8 ovarian
  TGI: > 100 µM
RPMI-8226 leukemia
  TGI: > 100 µM
RXF 393 renal
  TGI: > 100 µM
SF-268 CNS
  TGI: > 100 µM
SF-295 CNS
  TGI: > 100 µM
SF-539 CNS
  TGI: > 100 µM
SK-MEL-2 melanoma
  TGI: > 100 µM
SK-MEL-5 melanoma
  TGI: > 100 µM
SK-OV-3 ovarian
  TGI: > 100 µM
SN12C renal
  TGI: > 100 µM
SNB-19 CNS
  TGI: > 100 µM
SNB-75 CNS
  TGI: > 100 µM
SNB-78 CNS
  TGI: > 100 µM
SW-620 colon
  TGI: > 100 µM
TK-10 renal
  TGI: > 100 µM
U251 CNS
  TGI: > 100 µM
UACC-257 melanoma
  TGI: > 100 µM
UACC-62 melanoma
  TGI: > 100 µM
UO-31 renal
  TGI: > 100 µM
XF 498 CNS
  TGI: > 100 µM
